# Source: patent US7067486B2, “Acetylcholinesterase-derived peptides and uses thereof” (priority 1999, dated 2006)
# Marks after values point to notes of the source that are not given here.
# Columns and labels:
# developing mouse brain = assay: BrdU labeling in developing brain after injection of pregnant mouse; assay type: in vivo; settings: peptide 0.1 mg/Kg into pregnant mouse; BrdU 24 hr later
# Source text: After 1 hr the embryo was isolated and fixed.
# Embryonic neuroepithelial cells have one of two fates: (1) to continue proliferation and migration up and down from the ventricular zone up to the cortical plate, or (2) to quit the proliferative cycle and initiate terminal differentiation. The balance between these two processes determines the number of proliferating neuronal progenitors as well as the thickness of the cortical plate where post-mitotic neurons accumulate (see scheme at FIG. 10).
# CD34^+ cells = assay: Cell phenotyping of CD34+ liquid cultures by flow cytometry (CD34, CD33, CD15, CD41); assay type: cell-based, human; settings: day 14; seeded at 50,000 cells/well; ARP 2 nM, cortisol 1.2 μM, ASP 2 nM, SCF 50 ng/ml, AS1 20 pM, PBAN 2 nM
# Source text: Cell Source: UCB was collected, following informed consent of the parents and with the approval of the Sourasky Medical Center Ethics Committee, as previously described [Grisaru et al. (1999a) Am. J. Obstet. Gynecol, 180, 1240–1243]. Following 1:1 (v/v) dilution in Iscove's modified Dulbecco medium (IMDM, Beit Haemek, Israel), mononuclear cells were separated using 3% gelatin (Difco, Detroit, Mich.) and Ficoll-Hypaque gradients (<1.077 g/ml; Pharmacia, Uppsala, Sweden) [Pick et al. (1998) Br. J. Haematol. 103, 639–50]. CD34^+ cells were enriched using CD34 immunoglobulin-coated magnetic beads (CD34 progenitor cell selection system, Dynal, Norway).CD34^+ cells analysis was performed by flow cytometry (Becton Dickinson Immunocytochemistry System Inc., San Jose, Calif.), using CD34-PE (Becton Dickinson Immunocytometry System, Inc.) and CD45-FITC (Dako, Glostrup, Denmark) monoclonal antibodies. […] Liquid Cultures: UCB CD34^+ cells were set for liquid cultures at a concentration of 10^5/mL in IMDM, containing 10% autologous plasma, 2 mM L-glutamine (Sigma Chemical Co., St Louis, Mo.), penicillin ([…]), streptomycin ([…]), amphotericin B (2×10^−5 M) (Sigma Chemical Co.), and heparin (20 IU/mL, Gibco, Grand Island, N.Y.), all in a fully humidified atmosphere at 37° C. and 5% CO2. The following elements were added where noted: • 1. […] Endothlial Growth factors: Epidermal growth factor (EGF 10 ng/ml, Sigma Chemical Co.), basic Fibroblast growth factor (bFGF 20 ng/ml, Sigma Chemical Co.) incubated in a serum free medium (SFM) for 48 hr. • 3. Stress mimicking conditions: Hydrocortisone sodium succinate (Abic Ltd., Netanya, Israel) at concentrations equivalent to normal, intermediate and stress serum cortisol levels (0.1, 0.6 and 1.2 μM, respectively (De Vroede et al., Arch. Des. […] Antisense oligonucleotides: 3′-terminal 2′-O-Methylated 15- and 20-mer oligodeoxynucleotides in the antisense (AS) orientation, targeted against the common sequence domain in human AChEmRNA and BuChE mRNA, as control, […], as detailed elsewhere [Grisaru et al. (1999b) Mol. Cell. Biol. 19, 788–95]. • 5. AChE C-terminal peptides: The following C-terminal peptides of the AChE synaptic (ASP, also denoted SEQ ID: No. 2) and readthrough (ARP, also denoted SEQ ID: No. 1) isoforms were synthesized using a 433A peptide synthesizer (PE Applied Biosystems, Inc., Norwalk, Conn.). • ASP: 1-[…]-40, also denoted as SEQ ID: No. 2. • ARP: 1-[…]-26, also denoted as SEQ ID: No. 1.
# Culture Analyses: Twenty-four hr liquid cultures served for cytochemical staining, in situ hybridization, and cell proliferation assay by 5-bromo-2′-deoxy-Uridine (BrdU) incorporation [Grisaru et al. (1999b) id ibid.]. Twenty-eight day liquid cultures were sampled every 6–8 days for viable cell counting (using trypan blue dye exclusion), cell phenotyping (CD34^+, CD33^+ and CD41^+ quantification using flow cytometry, with CD34-PE, CD33-FITC (Immunotech/Coulter, Hialeah, Fla.), CD41-FITC (Immunoquality Products, Groningen, Netherlands) and CD45-FITC monoclonal antibodies), and growth of progenitor colony (granulocyte-macrophage and megakaryocytic), using previously described techniques (Pick et al. (1998) id ibid.). […] 11, 1049–57]. Nuclear staining w with 4′,6-diamidino-2- phenylindole [DAPI, see e.g., Peterson et al. (1999) Genetics 152, 427–439].
substance,measurement,setting,value
ASP (DTLDEAERQWKAEFHRWSSYMVHWKNQFDHYSKQDRCSDL),neuronal proliferation (BrdU labeled nuclei) in embryonic brain,developing mouse brain,minor positive effect
same,CD33^+ (early myeloids),CD34^+ cells,10.0 cells per culture × 10^−3
same,CD33^+ and CD15^+ (total myeloids),CD34^+ cells,13.0 cells per culture × 10^−3
same,CD34^+ (early progenitors),CD34^+ cells,7.2 cells per culture × 10^−3
same,CD41^+ (megakaryocytes),CD34^+ cells,4.6^b cells per culture × 10^−3
